Test results as given in PubChem BioAssay (NCI).
Several values for one entry are separate records, joined by “and”; a condition that tells them apart may be missing. Equal values may be shown once.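 The compound was tested at five concentrations on cells cultured in 96-well plates, with a 48-hour exposure period. Abbreviation: GI50, concentration required for 50% inhibition of growth. The concentration for full growth arrest is given as TGI.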

Columns and labels:
Assay in all cases: NCI anticancer screen, dose series, 48 h
786-0 renal = tested on: 786-0 renal
A498 renal = tested on: A498 renal
CAKI-1 renal = tested on: CAKI-1 renal
KM12 colon = tested on: KM12 colon
MALME-3M melanoma = tested on: MALME-3M melanoma
NCI-H23 lung = tested on: NCI-H23 lung
SF-295 CNS = tested on: SF-295 CNS
SNB-19 CNS = tested on: SNB-19 CNS
SNB-75 CNS = tested on: SNB-75 CNS
UACC-62 melanoma = tested on: UACC-62 melanoma

| SMILES | GI50 (786-0 renal) [nM] | TGI (786-0 renal) | GI50 (A498 renal) [µM] | TGI (A498 renal) [µM] | GI50 (CAKI-1 renal) [nM] | TGI (CAKI-1 renal) [µM] | GI50 (KM12 colon) [nM] | TGI (KM12 colon) [µM] | GI50 (MALME-3M melanoma) [µM] | TGI (MALME-3M melanoma) [µM] | GI50 (NCI-H23 lung) [nM] | TGI (NCI-H23 lung) | GI50 (SF-295 CNS) [nM] | TGI (SF-295 CNS) | GI50 (SNB-19 CNS) [nM] | TGI (SNB-19 CNS) | GI50 (SNB-75 CNS) [nM] | TGI (SNB-75 CNS) [µM] | GI50 (UACC-62 melanoma) [nM] | TGI (UACC-62 melanoma) |
| --- | --- | --- | --- | --- | --- | --- | --- | --- | --- | --- | --- | --- | --- | --- | --- | --- | --- | --- | --- | --- |
| O=C(Nc1ccc(Cl)cc1)Nc1ccc(Nc2nncc3ccccc23)cc1 | 3090 | 25.2 µM | 3.79 | 18.8 | 1970 | 12.5 | 1470 | 11.4 | 3.94 | 16.5 | 3070 | 14.4 µM | 2840 | 11 µM | 3670 | 19 µM | 1880 | 8.67 | 958 | 7.97 µM |
| COC(=O)C1=CC2C(=O)OC1CC2C#N (stereo not given) |  | > 100 µM |  | > 100 |  | > 100 |  | > 100 |  | > 100 |  | > 100 µM |  | > 100 µM |  | > 100 µM |  | > 100 |  | > 100 µM |
| CC#CC(=O)SCCNC(=O)CC |  | > 10 µM |  | > 10 |  | > 10 |  | > 10 |  | > 10 |  | > 10 µM |  | > 10 µM |  | > 10 µM |  | > 10 |  | > 10 µM |
| CC(=O)C1C(=O)C(=O)N(c2ccccc2C(C)C)C1=O (stereo not given) |  | > 100 µM |  | > 100 |  | > 100 |  | > 100 |  | > 100 |  | > 100 µM |  | > 100 µM |  | > 100 µM |  | > 100 |  | > 100 µM |
| COc1ccc(/C=C\c2cc(OC)c(OC)c(OC)c2)cc1OC | 616 | 40.4 µM and > 100 µM |  | 40.4 |  | 40.4 | 51.3 |  |  | 91.6 | 447 | 40.4 µM and > 100 µM | 67.2 | 40.4 µM and > 100 µM | 320 | 40.4 µM and 83.6 µM |  | 40.4 | 36 | 40.4 µM and > 100 µM |
| C/C=C(/C)C(=O)O[C@H](C[C@@H](C)[C@H]1CC(c2ccoc2)OC1=O)[C@@]1(C)C(=O)CCC2O[C@]21C (stereo not given in full) |  | > 100 µM |  | > 100 |  | > 100 |  | > 100 |  | > 100 |  | > 100 µM |  | > 100 µM |  | > 100 µM |  | > 100 |  | > 100 µM |
| COc1c(Cl)cc(NC(=S)C#N)cc1Cl |  | 88.2 µM |  | 44.5 |  | 58.4 |  | 85.6 |  | 59.6 |  | 44.6 µM |  | > 79.9 µM |  | > 100 µM |  | 67.4 |  | 30.8 µM |
| CN(C)c1ccc2c(c1)OC(N)=C(C#N)C2c1ccc2c(c1)CCO2 (stereo not given) | 50.2 | 25.1 µM | < 0.0272 | 5.59 | 147 | > 100 | < 30.9 | > 42 | 14.9 | 59.7 | 362 | > 100 µM | < 20.8 | 1.95 µM | 1170 | > 100 µM | 81.2 | > 49.4 | < 20.5 | 21.9 µM |
| O=C1CC(S(=O)(=O)O)C=C1Nc1cccc(Cl)c1 (stereo not given) |  | > 100 µM |  | > 100 |  | > 100 |  | > 100 |  | > 100 |  | > 100 µM |  | > 100 µM |  | > 100 µM |  | > 100 |  | > 100 µM |
